The text below walks through data of patent US20230265082A1, “SUBSTITUTED 1,2,4-OXADIAZOLES AS SMALL MOLECULE INHIBITORS OF UBIQUITIN-SPECIFIC PROTEASE 28” (Dana-Farber Cancer Institute, Inc., priority 2020, published 2023).

The target of assay [1] is T1, USP28 (Homo sapiens, UniProt Q96RU2).
T1 sequence (Q96RU2 1-1077): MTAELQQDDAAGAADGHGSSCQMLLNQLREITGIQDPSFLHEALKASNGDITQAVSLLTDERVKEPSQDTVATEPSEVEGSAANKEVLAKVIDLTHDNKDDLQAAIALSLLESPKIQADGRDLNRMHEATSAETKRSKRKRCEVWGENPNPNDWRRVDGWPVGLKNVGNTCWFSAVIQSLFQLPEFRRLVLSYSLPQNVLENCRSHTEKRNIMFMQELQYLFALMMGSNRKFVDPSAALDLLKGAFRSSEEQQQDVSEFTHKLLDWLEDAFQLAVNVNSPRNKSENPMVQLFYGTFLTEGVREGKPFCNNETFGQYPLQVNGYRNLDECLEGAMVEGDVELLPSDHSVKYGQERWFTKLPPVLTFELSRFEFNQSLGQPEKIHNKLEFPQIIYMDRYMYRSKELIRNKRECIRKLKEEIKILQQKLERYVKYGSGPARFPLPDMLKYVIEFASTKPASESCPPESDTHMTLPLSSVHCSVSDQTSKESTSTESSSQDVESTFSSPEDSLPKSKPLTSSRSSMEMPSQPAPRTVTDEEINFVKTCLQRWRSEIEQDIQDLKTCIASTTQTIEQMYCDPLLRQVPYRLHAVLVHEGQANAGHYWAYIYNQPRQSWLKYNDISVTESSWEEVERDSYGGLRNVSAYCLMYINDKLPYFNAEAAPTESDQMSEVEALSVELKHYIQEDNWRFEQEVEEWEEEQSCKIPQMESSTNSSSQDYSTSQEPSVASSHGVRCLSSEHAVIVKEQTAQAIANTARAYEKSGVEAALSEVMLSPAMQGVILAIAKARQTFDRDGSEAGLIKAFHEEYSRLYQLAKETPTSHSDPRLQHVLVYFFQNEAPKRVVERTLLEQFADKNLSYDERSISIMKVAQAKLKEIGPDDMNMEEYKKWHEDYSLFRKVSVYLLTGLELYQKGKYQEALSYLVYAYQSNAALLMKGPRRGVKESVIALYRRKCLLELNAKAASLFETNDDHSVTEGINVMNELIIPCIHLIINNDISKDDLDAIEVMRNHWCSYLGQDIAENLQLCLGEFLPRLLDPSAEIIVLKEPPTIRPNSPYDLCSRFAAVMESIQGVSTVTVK
Kind of assay: Ubiquitin-Rhodamine110 assay. The assay is classed as biochemical. As to conditions: USP28 at 1 nM, 30 minutes pre-incubation at room temperature, Ubiquitin-Rho110 125 nM. Here is the method:
USP28 (at 1 nM) was pre-incubated with different concentrations of inhibitors or DMSO as a control in 50 mM Tris pH 8, 50 mM NaCl, 0.002% Tween-20, 5 mM DTT. Compounds and protein were incubated for 30 minutes at room temperature prior to the addition of Ubiquitin-Rho110 (Boston Biochem) substrate for a final concentration of 125 nM. The initial rate of the reaction was measured by collecting fluorescence data at one-minute interval over 30-minute period using a Clariostar® fluorescence plate reader at excitation and emission wavelength of 485 nm and 535 nm, respectively. The calculated initial rate values were plotted against inhibitor concentrations to determine IC50s. All the experimental data were plotted using GraphPad Prism®.

Assay [2] addresses T1, USP28. The assay is described as follows: Competitive activity-based protein profiling (target engagement, Ub-VME probe, Western blot). As to conditions: K562 cells lysed, treated with compound for 1 h followed by Ub-VME; Western blot (FIG. 3). In kind it is binding. Here is the method: K562 cells were lysed and treated with indicated concentrations of compound 8 for 1 h followed by incubation with Ub-VME. Ub-VME covalently modifies USP28, resulting in higher MW band observed by Western blot.
Cells were pelleted, washed with PBS buffer, lysed on ice (20 mM Tris pH 8, 150 mM NaCl, 1% NP-40, 10% glycerol, 1 mM TCEP, phosphatase inhibitor cocktails (Sigma P5726 and Calbiochem 524624), and protease inhibitors (pepstatin, leupeptin, PMSF, and aprotinin), and clarified by centrifugation. Protein content was quantified by BCA and diluted to 2 mg/mL in lysis buffer. Compounds were added at desired concentrations and incubated at room temperature for 30 minutes. Samples were then supplemented with 2 uM HA-Ub-VS and incubated at room temperature with shaking for 15 minutes. Reactions were quenched with 4×LDS sample buffer (Thermo Fisher B0007) supplemented with 10% BME, vortexed vigorously, and heated to 95° C. for 5 minutes. Samples were resolved by SDS-PAGE and analyzed by Western blot with the indicated antibodies.
On the technique in general: In western blotting, separated proteins are transferred to a membrane and probed.

The IC50 is the concentration at which inhibition is half-maximal. The low end stands for greater potency in that assay, the high end for weaker potency in that assay.

For the molecule `O=c1ccc(-c2nc(Cc3ccc(Cl)c(Cl)c3)no2)c[nH]1` [Compound 9], in assay [1], the IC50 was 1 to 10 µM. On the same count and under the same terms, for `Nc1ccc(Cc2nc(-c3ccc(Cl)nc3)no2)cc1` [Compound 30] the value was 10 to 100 µM. On the same count and under the same terms, for `O=c1ccc(-c2noc(Cc3ccc(Cl)cc3)n2)c[nH]1` [Compound 4] the value was 1 to 10 µM; for `c1ccc2cc(Cc3nc(-c4ccncc4)no3)ccc2c1` [Compound 1], 1 to 10 µM. In assay [1], `Clc1ccc(-c2noc(Cc3ccccc3)n2)cn1` [Compound 6] returned an IC50 of under 1 µM. On the same count and under the same terms, for `O=c1ccc(-c2noc(Cc3ccccc3)n2)c[nH]1` [Compound 7] the value was 1 to 10 µM; for `CN1CCN(c2cc(Cn3cc(-c4nc(-c5ccc(OC(F)(F)F)cc5)no4)ccc3=O)ccn2)CC1` [Compound 12], over 100 µM; for `c1ccc(-c2nc(-c3cccnc3)no2)nc1` [Compound 2], over 100 µM. On the same count and under the same terms, for `Clc1ccc(-c2noc(Cc3ccc4ccccc4c3)n2)cn1` [Compound 22] the value was under 1 µM.

As for `N[C@@H](Cc1ccccc1)c1nc(-c2ccc(=O)[nH]c2)no1` [Compound 17], the IC50 in assay [1] is over 100 µM. Still for that read-out and setting: under `Clc1ccc(-c2noc(Cc3cccc4ccccc34)n2)cn1` [Compound 23] stands 1 to 10 µM. Still for that read-out and setting: under `CCC(c1ccccc1)c1nc(-c2ccc(Cl)nc2)no1` (centres unmarked) [Compound 20] stands over 100 µM. Still for that read-out and setting: for `Clc1ccc(-c2noc(Cc3ccc(Cl)c(Cl)c3)n2)cn1` [Compound 5] the value was under 1 µM; for `O=C(Nc1ccc(-c2noc(Cc3ccc(Cl)c(Cl)c3)n2)cn1)[C@H]1CCNC1` [Compound 32], 1 to 10 µM. `O=c1ccc(-c2noc(Cc3ccc(Cl)c(Cl)c3)n2)c[nH]1` [Compound 8]: the “labeling of USP28 by covalent Ub-VME probe (target engagement)” value in assay [2] is “prevents labeling of USP28 by the covalent Ub-VME probe”. For the same molecule, in assay [1], the IC50 is under 1 µM. Consider `Clc1cccc(Cc2nc(-c3ccc(Cl)nc3)no2)c1` [Compound 29], for which the IC50 in assay [1] is 1 to 10 µM.

For `Clc1ccc(Cc2nc(-c3ccc(Cl)nc3)no2)cc1` [Compound 3], the concentration for half-maximal inhibition (IC50) in assay [1] lay in the range of 1 to 10 µM.

`O=c1ccc(-c2noc(Cc3ccc(Cl)c(Cl)c3)n2)cn1Cc1ccccc1` [Compound 10] registered an IC50 in assay [1] of 1 to 10 µM. Regarding `CCC(c1ccccc1)c1nc(-c2ccc(=O)[nH]c2)no1` (centres unmarked) [Compound 21], the concentration for half-maximal inhibition (IC50) in assay [1] was over 100 µM.

Regarding `O=C(O)c1cccc(-c2noc(Cc3ccc(Cl)c(Cl)c3)n2)c1` [Compound 18], the IC50 in assay [1] was 10 to 100 µM. The same measure, in the same setting: for `O=c1ccc(-c2noc(Cc3cccc(Cl)c3)n2)c[nH]1` [Compound 28] the value was under 1 µM. With `Nc1ccc(-c2noc(Cc3ccc(Cl)c(Cl)c3)n2)cn1` [Compound 19], the IC50 in assay [1] was under 1 µM.

As to `COC(=O)c1ccc(Cc2noc(Cc3ccc(Cl)c(Cl)c3)n2)cc1` [Compound 14], the IC50 in assay [1] was over 100 µM. Same read-out and setting: for `O=[N+]([O-])c1cc(Cc2nc(-c3ccc(Cl)nc3)no2)ccc1Cl` [Compound 31] the value was 1 to 10 µM. Still for that read-out and setting: for `O=c1ccc(-c2noc(Cc3cc(F)cc(F)c3)n2)c[nH]1` [Compound 16] the value was 1 to 10 µM. On the same count and under the same terms, for `CN(C)c1ccc(-c2noc(Cc3ccc(Cl)c(Cl)c3)n2)cn1` [Compound 13] the value was over 100 µM; for `O=c1ccc(-c2nc(-c3ccc(OC(F)(F)F)cc3)no2)cn1Cc1ccnc(Cl)c1` [Compound 11], over 100 µM; for `O=C(O)c1ccc(Cc2noc(Cc3ccc(Cl)c(Cl)c3)n2)cc1` [Compound 15], 10 to 100 µM.
